Patent US8309554B2 (priority 2008, dated 2012)
Where “and” joins values, the source holds several entries; their conditions need not be identical. Equal values may be shown once. Read-outs that look alike come from different tables or passages of the source.

Key:
[1] = test system: H460 spheroid; experiment: cells; format: cell-based; conditions: Homo sapiens
[2] = test system: H460; experiment: cells; format: cell-based; conditions: for IC50: Homo sapiens
[3] = in vivo; conditions: mouse, ip
[4] = test system: H460 non small cell lung xenograft; conditions: mouse, in vivo
[5] = test system: HT29; experiment: cells; format: cell-based; conditions: for IC50: Homo sapiens, HT-29, 2 h
[6] = test system: HT 1080 sarcoma xenograft; conditions: mouse, in vivo
[7] = NCI-H460, read-out: 2 h Air H460 spheroid IC50
[8] = NCI-H460, read-out: 2 h N2 H460 spheroid IC50
[9] = NCI-H460, read-out: 2 h Air H460 monolayer IC50
[10] = NCI-H460, read-out: 2 h N2 H460 monolayer IC50
[11] = NCI-H460, 2 h, read-out: 2 hr Air H460 IC50
[12] = NCI-H460, 2 h, read-out: 2 hr N2 H460 IC50

Which IC50 [1, 7] does the source give for `CC(n1ccnc1[N+](=O)[O-])S(=O)(=O)N(C)c1ccc(N(CCCl)CCCl)cc1` (stereo not drawn) [TH-1127] here?
The IC50 was less than 0.69 µM.

And the IC50 [1, 8]?
The IC50 was less than 0.69 µM.

And the IC50 [2, 9]?
Its IC50 is 37 µM.

And the IC50 [2, 10]?
The IC50 was 3.9 µM.

With `O=[N+]([O-])c1sccc1C(Cc1cccnc1)S(=O)(=O)Oc1ccc(N(CCCl)CCCl)cc1` (stereo not drawn) [TH-1331, 3-(4-(N,N-bis-(2-Chloroethyl)amino)phenoxysulfonyl-(pyridin-3-yl-methyl))methyl-2-nitrothiophene] as the compound, how does the MTD [3] read?
Its MTD is 60 mg/kg.

What about the “H460 HCR: Air/N2” value [2] of the same compound?
Its value is 69.

And the IC50 [2, 11]?
The IC50 was 103 µM.

What about the IC50 [2, 12] of the same compound?
The IC50 was 1.5 µM.

What about the “tumor growth delay to 500 mm^3” value [4] of the same compound?
The value was 11 days and 10 days.

What about the “HT29 HCR: Air/N2” value [5] of the same compound?
Its value is 15.

And the IC50 ([5]; read-out: 2 hr Air HT29 IC50)?
Its IC50 is 166 µM.

What about the IC50 ([5]; read-out: 2 hr N2 HT29 IC50) of the same compound?
The IC50 was 11 µM.

Which results are given for `CS(=O)(=O)CCC(c1ccsc1[N+](=O)[O-])S(=O)(=O)Oc1ccc(N(CCCl)CCCl)cc1` (stereo not drawn) [TH-1266, 3-(4-(N,N-bis-(2-Chloroethyl)amino)phenoxysulfonyl-(2-methylsulfonyl)ethyl)methyl-2-nitrothiophene]?
MTD [3]: 40 mg/kg; H460 HCR: Air/N2 [2]: 183; IC50 [2, 11]: 55 µM; IC50 [2, 12]: 0.3 µM; tumor growth delay to 500 mm^3 [4]: 25 days and 21 days; HT29 HCR: Air/N2 [5]: >29; IC50 ([5]; read-out: 2 hr Air HT29 IC50): > 1000 µM; IC50 ([5]; read-out: 2 hr N2 HT29 IC50): 34 µM

Which MTD [3] does the source give for `Cn1cncc1CC(c1ccsc1[N+](=O)[O-])S(=O)(=O)Oc1ccc(N(CCCl)CCCl)cc1` (stereo not drawn) [TH-1365] here?
The MTD was 10 mg/kg.

What about the “H460 HCR: Air/N2” value [2] of the same compound?
The value was 33.

What about the IC50 [2, 11] of the same compound?
Its IC50 is 23 µM.

What about the IC50 [2, 12] of the same compound?
Its IC50 is 0.7 µM.

What about the “tumor growth delay to 500 mm^3” value [4] of the same compound?
The value was 10 days.

What about the “HT29 HCR: Air/N2” value [5] of the same compound?
Its value is 25.

What about the IC50 ([5]; read-out: 2 hr Air HT29 IC50) of the same compound?
Its IC50 is 270 µM.

And the IC50 ([5]; read-out: 2 hr N2 HT29 IC50)?
The IC50 was 11 µM.

For `CN(c1ccc(N(CCCl)CCCl)cc1)S(=O)(=O)C(C)(C)c1cnc([N+](=O)[O-])n1C` [TH-1126], which IC50 [1, 7] is on record?
Its IC50 is less than 0.69 µM.

And the IC50 [1, 8]?
Its IC50 is less than 0.69 µM.

And the IC50 [2, 9]?
Its IC50 is 45 µM.

What about the IC50 [2, 10] of the same compound?
The IC50 was 7.1 µM.

For `CN(c1ccc(N(CCCl)CCCl)cc1)S(=O)(=O)Cn1ccnc1[N+](=O)[O-]` [TH-1107], which IC50 [1, 7] is on record?
Its IC50 is less than 0.69 µM.

And the IC50 [1, 8]?
The IC50 was less than 0.69 µM.

What about the IC50 [2, 9] of the same compound?
Its IC50 is 113 µM.

What about the IC50 [2, 10] of the same compound?
Its IC50 is 7.9 µM.

For `O=[N+]([O-])c1sccc1C(Cc1ccc(O)nc1)S(=O)(=O)Oc1ccc(N(CCCl)CCCl)cc1` (stereo not drawn) [TH-1305, 3-(4-(N,N-bis-(2-Chloroethyl)amino)phenoxysulfonyl-(2-hydroxypyridin-5-yl-methyl))methyl-2-nitrothiophene], which MTD [3] is on record?
Its MTD is 20 mg/kg.

What about the “H460 HCR: Air/N2” value [2] of the same compound?
The value was 67.

What about the IC50 [2, 11] of the same compound?
The IC50 was 47 µM.

And the IC50 [2, 12]?
The IC50 was 0.7 µM.

What about the “tumor growth delay to 500 mm^3” value [4] of the same compound?
Its value is 10 days.

What about the “HT29 HCR: Air/N2” value [5] of the same compound?
The value was greater than 44.

What about the IC50 ([5]; read-out: 2 hr Air HT29 IC50) of the same compound?
Its IC50 is greater than 300 µM.

What about the IC50 ([5]; read-out: 2 hr N2 HT29 IC50) of the same compound?
The IC50 was 6.8 µM.

With `Cc1cc(OS(=O)(=O)C(C)c2ccsc2[N+](=O)[O-])ccc1N(CCCl)CCCl` (stereo not drawn) [TH-1120] as the compound, how does the IC50 [1, 7] read?
Its IC50 is less than 0.08 µM.

And the IC50 [1, 8]?
Its IC50 is less than 0.08 µM.

What about the IC50 [2, 9] of the same compound?
Its IC50 is 2.4 µM.

And the IC50 [2, 10]?
The IC50 was 0.3 µM.

What does the source list for `O=[N+]([O-])c1sccc1C(Cc1ccc2c(c1)nnn2CCO)S(=O)(=O)Oc1ccc(N(CCCl)CCCl)cc1` (stereo not drawn) [TH-1451, 3-(4-(N,N-bis-(2-Chloroethyl)amino)phenoxysulfonyl-(1-(2-hydroxyethyl)benzotriazol-5-yl-methyl))methyl-2-nitrothiophene]?
H460 HCR: Air/N2 [2]: 110; IC50 [2, 11]: 110 µM; IC50 [2, 12]: 1 µM; HT29 HCR: Air/N2 [5]: 42; IC50 ([5]; read-out: 2 hr Air HT29 IC50): 250 µM; IC50 ([5]; read-out: 2 hr N2 HT29 IC50): 6 µM

Which “tumor growth delay to 500 mm^3” value [6] does the source give for `COc1cccc2c1C(=O)c1c(O)c3c(c(O)c1C2=O)C[C@@](O)(C(=O)CO)C[C@@H]3O[C@H]1C[C@H](N)[C@H](O)[C@H](C)O1` [doxorubicin, reference compound] here?
Its value is 10 days.

With `O=C(CO)Nc1ccc(CC(c2ccsc2[N+](=O)[O-])S(=O)(=O)Oc2ccc(N(CCCl)CCCl)cc2)cn1` (stereo not drawn) [TH-1354, 3-(4-(N,N-bis-(2-Chloroethyl)amino)phenoxysulfonyl-(2-(hydroxyacetylamino)pyridin-5-yl-methyl))methyl-2-nitrothiophene] as the compound, how does the MTD [3] read?
The MTD was 40 mg/kg.

What about the “H460 HCR: Air/N2” value [2] of the same compound?
Its value is 65.

And the IC50 [2, 11]?
Its IC50 is 156 µM.

And the IC50 [2, 12]?
Its IC50 is 2.4 µM.

And the “tumor growth delay to 500 mm^3” value [4]?
Its value is 15 days and 12 days.

What about the “HT29 HCR: Air/N2” value [5] of the same compound?
The value was 33.

What about the IC50 ([5]; read-out: 2 hr Air HT29 IC50) of the same compound?
The IC50 was 660 µM.

What about the IC50 ([5]; read-out: 2 hr N2 HT29 IC50) of the same compound?
Its IC50 is 20 µM.
